Starred links: 1 amine or outer side, 2 acyl side, 3 side chain; linkers in the order of their positions; H or OH if unused. Positions of bridges follow the written chain, without caps; N, C: chain ends. Non-standard residues stand in square brackets, D forms with d. Residues, ends and D or L forms follow the SMILES beside them. ξ: configuration not given here. Phe(3-CF3) = N[C@@H](Cc1cccc(C(F)(F)F)c1)C(=O)O; X1 = C=CCOc1ccccc1C[C@H](N[*:1])C(=O)[*:2]; Phe(3-CN) = N#Cc1cccc(C[C@H](N)C(=O)O)c1; Phe(3-Cl) = N[C@@H](Cc1cccc(Cl)c1)C(=O)O; Phe(3-F) = N[C@@H](Cc1cccc(F)c1)C(=O)O; Phe(3-Me) = Cc1cccc(C[C@H](N)C(=O)O)c1; Ahp(2) = CCCCC[C@H](N)C(=O)O; NMeNle = CCCC[C@H](NC)C(=O)O; Tle = CC(C)(C)[C@H](N)C(=O)O; NHexGly = CCCCCCNCC(=O)O; Nle = CCCC[C@H](N)C(=O)O; Orn = NCCC[C@H](N)C(=O)O; ξD = NC(CC(=O)O)C(=O)O; ξS = NC(CO)C(=O)O

From patent publication US20240218022A1, “ANTI-VISTA MACROCYCLIC PEPTIDES AND COMPOSITIONS” (BRISTOL-MYERS SQUIBB COMPANY, priority 2022, published 2024) come the findings set out here.

For the test, the target named is T1, mouse VISTA (mVISTA) (Mus musculus, UniProt Q9D659).
T1 construct: expressed in transfected cells; host or cells: Human embryonic kidney 293T cells
T1 sequence (Q9D659 33-308): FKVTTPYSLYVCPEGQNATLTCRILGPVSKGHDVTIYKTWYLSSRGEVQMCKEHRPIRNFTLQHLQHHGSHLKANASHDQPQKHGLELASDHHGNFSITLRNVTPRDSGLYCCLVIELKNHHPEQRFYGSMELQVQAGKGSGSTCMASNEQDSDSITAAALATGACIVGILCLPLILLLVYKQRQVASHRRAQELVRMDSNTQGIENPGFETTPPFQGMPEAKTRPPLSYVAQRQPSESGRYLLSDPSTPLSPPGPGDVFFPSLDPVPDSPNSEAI
The test is described as follows: Cell-Based Binding High-Content Assay For mVISTA (HC CBA mVISTA). The settings on record: read-out: HC CBA mVISTA IC50. A digest of the protocol:
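Read-out: Alexa 647–streptavidin signal imaged on fixed, Hoechst-stained mVISTA-293T cells, with IC50 taken from a four-parameter logistic curve. Compounds competed with 2 nM biotinylated peptide for 30 min at room temperature, tested under both no-wash and wash (1 h compound, media exchange, 1 h) formats.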

In general, IC50 refers to the concentration that gives 50% inhibition. For the compound `CCCCCCN1CC(=O)N[C@@H](Cc2ccc(O)cc2)C(=O)N[C@@H](CCCC)C(=O)N[C@@H](CC(N)=O)C(=O)N[C@@H](CCCNC(=N)N)C(=O)N[C@@H](CC(C)C)C(=O)N[C@@H](CCCCC)C(=O)N2CCC[C@H]2C(=O)N[C@@H](C(C)C)C(=O)N[C@@H](CC(=O)O)C(=O)N[C@H](C(=O)NCC(=O)O)CSCC(=O)N[C@@H](Cc2ccccc2)C(=O)N[C@@H](Cc2cccc(C)c2)C(=O)N[C@@H](CC(=O)O)C1=O` [compound 1329] ({CH2CO}-F[Phe(3-Me)]D[NHexGly]Y[Nle]NRL[Ahp(2)]PVDCG-OH; thioether N-14), the half-maximal inhibitory concentration (IC50) was found to be 4.5 nM. With `CCCCCCN1CC(=O)N[C@@H](Cc2ccc(O)cc2)C(=O)N[C@@H](CCCC)C(=O)N[C@@H](CC(=O)O)C(=O)N[C@@H](CCCNC(=N)N)C(=O)N[C@@H](CC(C)C)C(=O)N[C@@H](CCCCC)C(=O)N2CCC[C@H]2C(=O)N[C@@H](C(C)C)C(=O)N[C@@H](CC(=O)O)C(=O)N[C@H](C(=O)NC(CO)C(N)=O)CSCC(=O)N[C@@H](Cc2ccccc2)C(=O)N[C@@H](Cc2cccc(C)c2)C(=O)N[C@@H](CC(=O)O)C1=O` (stereo partly drawn) [compound 1330] ({CH2CO}-F[Phe(3-Me)]D[NHexGly]Y[Nle]DRL[Ahp(2)]PVDC[ξS]-NH2; thioether N-14) the figure was 16.8 nM; with `CCCCCCN1CC(=O)N[C@@H](Cc2ccc(O)cc2)C(=O)N[C@@H](CCCC)C(=O)N[C@@H](CC(=O)O)C(=O)N[C@@H](CCCN)C(=O)N[C@@H](CC(C)C)C(=O)N[C@@H](CCCCC)C(=O)N2CCC[C@H]2C(=O)N[C@@H](C(C)C)C(=O)N[C@@H](CC(=O)O)C(=O)N[C@H](C(=O)NC(CO)C(N)=O)CSCC(=O)N[C@@H](Cc2ccccc2)C(=O)N[C@@H](Cc2cccc(C)c2)C(=O)N[C@@H](CC(=O)O)C1=O` (stereo partly drawn) [compound 1331] ({CH2CO}-F[Phe(3-Me)]D[NHexGly]Y[Nle]D[Orn]L[Ahp(2)]PVDC[ξS]-NH2; thioether N-14), 14.3 nM; with `CCCCCCN1CC(=O)N[C@@H](Cc2ccc(O)cc2)C(=O)N[C@@H](CCCC)C(=O)N[C@@H](CC(N)=O)C(=O)N[C@@H](CCCNC(=N)N)C(=O)N[C@@H](CC(C)C)C(=O)N[C@@H](CCCCC)C(=O)N2CCC[C@H]2C(=O)N[C@@H](C(C)C)C(=O)N[C@@H](CC(=O)O)C(=O)N[C@H](C(=O)NCC(=O)O)CSCC(=O)N[C@@H](Cc2ccccc2)C(=O)N[C@@H](Cc2cccc(C(F)(F)F)c2)C(=O)N[C@@H](CC(=O)O)C1=O` [compound 1332] ({CH2CO}-F[Phe(3-CF3)]D[NHexGly]Y[Nle]NRL[Ahp(2)]PVDCG-OH; thioether N-14), 12.1 nM. On to `CCCCCCN1CC(=O)N[C@@H](Cc2ccc(O)cc2)C(=O)N[C@@H](CC(C)C)C(=O)N[C@@H](CC(N)=O)C(=O)N[C@@H](CCCNC(=N)N)C(=O)N[C@@H](CC(C)C)C(=O)N[C@@H](CCCCC)C(=O)N2CCC[C@H]2C(=O)N[C@@H](C(C)C)C(=O)N[C@@H](C(C)C)C(=O)N[C@H](C(=O)NCC(=O)O)CSCC(=O)N[C@@H](Cc2ccccc2)C(=O)N[C@@H](Cc2cccc(C(F)(F)F)c2)C(=O)N[C@@H](CC(=O)O)C1=O` [compound 1333] ({CH2CO}-F[Phe(3-CF3)]D[NHexGly]YLNRL[Ahp(2)]PVVCG-OH; thioether N-14), for which the IC50 is 27.6 nM. As for `C=CCOc1ccccc1C[C@@H]1NC(=O)[C@H](Cc2ccccc2)NC(=O)CSC[C@@H](C(=O)NCC(N)=O)NC(=O)[C@H](CO)NC(=O)[C@H](C(C)(C)C)NC(=O)[C@@H]2CCCN2C(=O)[C@H](CCCCC)NC(=O)[C@H](CCCC)N(C)C(=O)[C@H](CCCNC(=N)N)NC(=O)[C@H](CC(N)=O)NC(=O)[C@H](CC(C)C)NC(=O)[C@H](Cc2ccc(O)cc2)NC(=O)CN(CCCCCC)C(=O)[C@H](CC(=O)O)NC1=O` [compound 1338] ({CH2CO}-F[X1]D[NHexGly]YLNR[NMeNle][Ahp(2)]P[Tle]SCG-NH2; thioether N-14), the figure is 34.6 nM; as for `CCCCCCN1CC(=O)N[C@@H](Cc2ccc(O)cc2)C(=O)N[C@@H](CC(C)C)C(=O)N[C@@H](CC(N)=O)C(=O)N[C@@H](CCCNC(=N)N)C(=O)N(C)[C@@H](CCCC)C(=O)N[C@@H](CCCCC)C(=O)N2CCC[C@H]2C(=O)N[C@@H](C(C)(C)C)C(=O)N[C@@H](CO)C(=O)N[C@H](C(=O)NCC(N)=O)CSCC(=O)N[C@@H](Cc2ccccc2)C(=O)N[C@@H](Cc2cccc(Cl)c2)C(=O)N[C@@H](CC(=O)O)C1=O` [compound 1339] ({CH2CO}-F[Phe(3-Cl)]D[NHexGly]YLNR[NMeNle][Ahp(2)]P[Tle]SCG-NH2; thioether N-14), 31.6 nM. With `CCCCCCN1CC(=O)N[C@@H](Cc2ccc(O)cc2)C(=O)N[C@@H](CC(C)C)C(=O)N[C@@H](CC(N)=O)C(=O)N[C@@H](CCCNC(=N)N)C(=O)N(C)[C@@H](CCCC)C(=O)N[C@@H](CCCCC)C(=O)N2CCC[C@H]2C(=O)N[C@@H](C(C)(C)C)C(=O)N[C@@H](CO)C(=O)N[C@H](C(=O)NCC(N)=O)CSCC(=O)N[C@@H](Cc2ccccc2)C(=O)N[C@@H](Cc2cccc(C#N)c2)C(=O)N[C@@H](CC(=O)O)C1=O` [compound 1340] ({CH2CO}-F[Phe(3-CN)]D[NHexGly]YLNR[NMeNle][Ahp(2)]P[Tle]SCG-NH2; thioether N-14) the figure was 36.8 nM.

Turning to `CCCCCCN1CC(=O)N[C@@H](Cc2ccc(O)cc2)C(=O)N[C@@H](CC(C)C)C(=O)N[C@@H](CC(N)=O)C(=O)N[C@@H](CCCNC(=N)N)C(=O)N(C)[C@@H](CCCC)C(=O)N[C@@H](CCCCC)C(=O)N2CCC[C@H]2C(=O)N[C@@H](C(C)(C)C)C(=O)N[C@@H](CO)C(=O)N[C@H](C(=O)NCC(N)=O)CSCC(=O)N[C@@H](Cc2ccccc2)C(=O)N[C@@H](Cc2cccc(F)c2)C(=O)N[C@@H](CC(=O)O)C1=O` [compound 1341] ({CH2CO}-F[Phe(3-F)]D[NHexGly]YLNR[NMeNle][Ahp(2)]P[Tle]SCG-NH2; thioether N-14), the IC50 came out at 19.1 nM. With `CCCCCCN1CC(=O)N[C@@H](Cc2ccc(O)cc2)C(=O)N[C@@H](CCCC)C(=O)N[C@@H](CC(=O)O)C(=O)N[C@@H](CCCNC(=N)N)C(=O)N(C)[C@@H](CCCC)C(=O)N[C@@H](CCCCC)C(=O)N2CCC[C@H]2C(=O)N[C@@H](C(C)C)C(=O)N[C@@H](CC(=O)O)C(=O)N[C@H](C(=O)NC(CC(=O)O)C(N)=O)CSCC(=O)N[C@@H](Cc2ccccc2)C(=O)N[C@@H](Cc2cccc(C)c2)C(=O)N[C@@H](CC(=O)O)C1=O` (stereo partly drawn) [compound 1342] ({CH2CO}-F[Phe(3-Me)]D[NHexGly]Y[Nle]DR[NMeNle][Ahp(2)]PVDC[ξD]-NH2; thioether N-14) the figure was 12.5 nM; with `CCCCCCN1CC(=O)N[C@@H](Cc2ccc(O)cc2)C(=O)N[C@@H](CCCC)C(=O)N[C@@H](CC(=O)O)C(=O)N[C@@H](CCCN)C(=O)N(C)[C@@H](CCCC)C(=O)N[C@@H](CCCCC)C(=O)N2CCC[C@H]2C(=O)N[C@@H](C(C)C)C(=O)N[C@@H](CC(=O)O)C(=O)N[C@H](C(=O)NC(CC(=O)O)C(N)=O)CSCC(=O)N[C@@H](Cc2ccccc2)C(=O)N[C@@H](Cc2cccc(C)c2)C(=O)N[C@@H](CC(=O)O)C1=O` (stereo partly drawn) [compound 1343] ({CH2CO}-F[Phe(3-Me)]D[NHexGly]Y[Nle]D[Orn][NMeNle][Ahp(2)]PVDC[ξD]-NH2; thioether N-14), 17.8 nM; with `CCCCCCN1CC(=O)N[C@@H](Cc2ccc(O)cc2)C(=O)N[C@@H](CCCCC)C(=O)N[C@@H](CC(N)=O)C(=O)N[C@@H](CCCNC(=N)N)C(=O)N(C)[C@@H](CCCC)C(=O)N[C@@H](CCCCC)C(=O)N2CCC[C@H]2C(=O)N[C@@H](C(C)C)C(=O)N[C@@H](C(C)C)C(=O)N[C@H](C(=O)NCC(=O)O)CSCC(=O)N[C@@H](Cc2ccccc2)C(=O)N[C@@H](Cc2cccc(C)c2)C(=O)N[C@@H](CC(=O)O)C1=O` [compound 1344] ({CH2CO}-F[Phe(3-Me)]D[NHexGly]Y[Ahp(2)]NR[NMeNle][Ahp(2)]PVVCG-OH; thioether N-14), 11 nM.

On to `CCCCCCN1CC(=O)N[C@@H](Cc2ccc(O)cc2)C(=O)N[C@@H](CCCC)C(=O)N[C@@H](CC(N)=O)C(=O)N[C@@H](CCCNC(=N)N)C(=O)N(C)[C@@H](CCCC)C(=O)N[C@@H](CCCCC)C(=O)N2CCC[C@H]2C(=O)N[C@@H](C(C)C)C(=O)N[C@@H](CC(=O)O)C(=O)N[C@H](C(=O)NCC(=O)O)CSCC(=O)N[C@@H](Cc2ccccc2)C(=O)N[C@@H](Cc2cccc(C)c2)C(=O)N[C@@H](CC(=O)O)C1=O` [compound 1345] ({CH2CO}-F[Phe(3-Me)]D[NHexGly]Y[Nle]NR[NMeNle][Ahp(2)]PVDCG-OH; thioether N-14), for which the IC50 was 12.7 nM. Consider `CCCCCCN1CC(=O)N[C@@H](Cc2ccc(O)cc2)C(=O)N[C@@H](CCCCC)C(=O)N[C@@H](CC(N)=O)C(=O)N[C@@H](CCCNC(=N)N)C(=O)N(C)[C@@H](CCCC)C(=O)N[C@@H](CCCCC)C(=O)N2CCC[C@H]2C(=O)N[C@@H](C(C)C)C(=O)N[C@@H](C(C)C)C(=O)N[C@H](C(=O)NC(CO)C(=O)O)CSCC(=O)N[C@@H](Cc2ccccc2)C(=O)N[C@@H](Cc2cccc(C)c2)C(=O)N[C@@H](CC(=O)O)C1=O` (stereo partly drawn) [compound 1346] ({CH2CO}-F[Phe(3-Me)]D[NHexGly]Y[Ahp(2)]NR[NMeNle][Ahp(2)]PVVC[ξS]-OH; thioether N-14), for which the IC50 was found to be 6.1 nM. As for `CCCCCCN1CC(=O)N[C@@H](Cc2ccc(O)cc2)C(=O)N[C@@H](CCCC)C(=O)N[C@@H](CC(=O)O)C(=O)N[C@@H](CCCNC(=N)N)C(=O)N(C)[C@@H](CCCC)C(=O)N[C@@H](CCCCC)C(=O)N2CCC[C@H]2C(=O)N[C@@H](C(C)C)C(=O)N[C@@H](CC(=O)O)C(=O)N[C@H](C(=O)NC(CO)C(N)=O)CSCC(=O)N[C@@H](Cc2ccccc2)C(=O)N[C@@H](Cc2cccc(C)c2)C(=O)N[C@@H](CC(=O)O)C1=O` (stereo partly drawn) [compound 1347] ({CH2CO}-F[Phe(3-Me)]D[NHexGly]Y[Nle]DR[NMeNle][Ahp(2)]PVDC[ξS]-NH2; thioether N-14), the figure is 10.6 nM.
